Reference: patent publication USRE31588E, “Imidazolylmethylthioethyl alkynyl guanidines” (Bristol-Myers Company, priority 1981, dated 1984)
Entries after “also recorded” stand apart in the source; their conditions may differ.

Assays:
gastric acid output [1] = experiment: Gastric antisecretory activity in the gastric fistula dog (histamine-induced); format: in vivo, dog (beagle); conditions: for Onset of inhibitory effect on gastric acid output: iv
Protocol: Thomas type [Thomas, J. E., Proc. Soc. exp. Biol. Med., 46, 260 (1941)] stainless steel cannulae are inserted into the stomachs of beagle dogs (10-12 kg.) just orad to the pyloric gland area near the greater curvature to provide a chronic gastric fistula. Animals are allowed to recover for at least two months before any testing is done. Dogs are fasted overnight (~18 hours) with water ad lib prior to each experiment. The dogs are placed in a sling and an eight inch inside needle catheter (C. R. Baird, Inc.) with a 2 inch 17 gauge needle is inserted into a leg vein fior purposes of drug administration. Gastric secretions are collected every 15 minutes by gravity drainage from the opened cannula. […] A modification of the procedure described by Grossman and Konturek, Gastroenterology, 66, 517 (1974) was followed. […] Each 15 minute sample of gastric juice is measured to the nearest 0.5 ml. and titratable acidity against 0.02N NaOH (endpoint pH 7.0) is measured with an Autoburet and pH meter (radiometer). The percent inhibition of acid output is calculated as described in the pylorus ligated rat procedure.

gastric acid output [2] = experiment: Gastric antisecretory activity in the two hour pylorus ligated (Shay) rat; format: in vivo, rat (male Long Evans); conditions: vs cimetidine
Text: The pyloric ligation procedure in the rat was designed by Shay et al., Gastroenterology, 5, 53 (1945) for the study of perforating gastric ulcers; however, as the method became known, it was also employed as a means of studying rat gastric secretion, Shay et al., Gastroenterology, 26, 906 (1954), Brodie, D. A., Am. J. Dig. […] A modification of this procedure is presently used to evaluate compounds for gastric antisecretory activity.
Male Long Evans rats, 280-300 gm., are used. The animals are placed in individual cages and fasted for 24 hours with free access to water. Under ether anesthesia, the stomach is reached through a midline incision, and a cotton-thread ligature is placed around the pylorus. After wound closure, ether administration is stopped and either BL-5641, cimetidine or vehicle are administered intraperitoneally in a volume of […]. BL-5641 and cimetidine are solubilized with one equivalent of HCl and brought to the proper volume with water. The animals are returned to their cages from which the water bottles have been removed and two hours later are sacrificed with ether. […] Titratable acid output is calculated in microequivalents by multiplying the volume in milliliters by the acid concentration in milliequivalents per liter. The percent inhibition of acid output is calculated as follows [formula]

[3] = molecular target: T1, histamine H2-receptors (isolated, spontaneously beating guinea pig right atria) (Cavia porcellus, UniProt P47747); experiment: Histamine H2-receptor antagonism, isolated guinea pig atria assay; format: cell-based; parameters: The spontaneously beating right atrium was dissected free from other tissues; from tissue; host or cells: isolated, spontaneously beating right atrium of male Hartley guinea pigs; conditions: for Histamine ED50 (concentration of histamine which increased contractile rate 50% of maximum) after test compound: test compound 1 × 10^-5 M, 30 minute incubation
Protocol: Subsequent investigations by Hughes and Coret, Proc. Soc. […] Black et al., Agents and Actions, 3, 133 (1973) and Brimblecombe et al., Fed. […] The present comparative studies were carried out using a modification of the procedure reported by Reinhardt et al., Agents and Actions, 4, 217 (1974).
Male Hartley strain guinea pigs (350-450 gm.) were sacrificed by a blow on the head. The heart was excised and placed in a Petri dish of oxygenated (95% O2, 5% CO2) modified Krebs solution (g./liter: NaCl 6.6, KCl 0.35, MgSO4. 7 H2 O 0.295, KH2 PO4 0.162, CaCl2 0.238, NaHCO3 2.1 and dextrose 2.09). The spontaneously beating right atrium was dissected free from other tissues and a silk thread (4-0) attached to each end. The atrium was suspended in a 20 ml. muscle chamber containing oxygenated modified Krebs solution maintained at 32° C. Atrial contractions were recorded isometrically by means of a Grass FT 0.03 force displacement transducer and recordings of contractile force and rate were made with a Beckman RP Dynograph.
A resting tension of 1 g. was applied to the atrium and it was allowed to equilibrate for 1 hour.
Concentration-response curve displacement factors were calculated as follows: [formula] The factor obtained for BL-5641 was then expressed as a ratio of the factor obtained for cimetidine. [formula]

[4] = in vivo, cited from earlier work
H2 receptor = conditions: cited from earlier work
gastric secretion = conditions: cited from earlier work
peptic ulcer disease = conditions: Gray et al., Lancet 1977; cited from earlier work
[5] = clinical; cited from earlier work
[6] = molecular target: T1, histamine H2-receptors (isolated, spontaneously beating guinea pig right atria); conditions: cited from earlier work

T1 sequence (P47747 whole entry): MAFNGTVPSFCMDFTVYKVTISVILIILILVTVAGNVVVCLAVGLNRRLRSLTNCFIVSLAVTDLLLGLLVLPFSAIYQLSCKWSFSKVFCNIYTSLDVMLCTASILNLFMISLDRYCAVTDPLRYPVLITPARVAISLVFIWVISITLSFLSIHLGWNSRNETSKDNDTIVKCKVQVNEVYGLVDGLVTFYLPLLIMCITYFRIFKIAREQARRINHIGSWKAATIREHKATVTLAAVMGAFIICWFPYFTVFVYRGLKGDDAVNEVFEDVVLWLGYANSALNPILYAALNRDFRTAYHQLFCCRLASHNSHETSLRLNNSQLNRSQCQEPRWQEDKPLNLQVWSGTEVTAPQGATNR

**Q.** For `C#CCN=C(NC#N)NCCSCc1[nH]cnc1C` [BL-5641, N-Cyano-N'-{2-[(4-methyl-5-imidazolyl)methylthio]ethyl}-N"-propargylguanidine], which “Duration of activity” value (gastric acid output [1]; equal doses, vs cimetidine) is on record?
**A.** longer duration of activity than cimetidine

**Q.** And the “Degree and duration of inhibition” value (gastric acid output [1]; equimolar doses, vs cimetidine)?
**A.** consistently greater and of longer duration with BL-5641 than with cimetidine

**Q.** And the “Onset of inhibitory effect on gastric acid output” value (gastric acid output [1])?
**A.** immediate inhibitory effect on gastric acid output

**Q.** What about the “Potency as inhibitor of gastric secretion” value (gastric acid output [1]; vs cimetidine) of the same compound?
**A.** more potent and/or longer acting than cimetidine; also recorded: more potent than cimetidine

**Q.** What about the “Potency for inhibition of gastric acid output” value (gastric acid output [2]) of the same compound?
**A.** more potent than cimetidine; also recorded: at least as potent as cimetidine

**Q.** And the “Potency as histamine H2-receptor antagonist” value ([3]; isolated guinea pig atria, vs cimetidine)?
**A.** more potent than cimetidine

**Q.** What about the “Histamine ED50 (concentration of histamine which increased contractile rate 50% of maximum) after test compound” value [3] of the same compound?
**A.** 12.44 µg/mL

**Q.** With `CNC(=S)NCCCCc1cnc[nH]1` [Burimamide] as the compound, how does the “Oral absorption” value ([4]; po) read?
**A.** oral absorption is poor

**Q.** And the “Mode of antagonism at histamine H2-receptors” value (H2 receptor; Black et al., Nature 1972)?
**A.** competitive antagonist

**Q.** And the “Inhibition of gastric secretion” value (gastric secretion; animals and man)?
**A.** inhibits gastric secretion in animals and man

**Q.** And the “Clinical effectiveness as H2 receptor antagonist” value (gastric secretion; clinical)?
**A.** first clinically effective H2 receptor antagonist

**Q.** Which “Onset of inhibitory effect on gastric acid output” value (gastric acid output [1]) does the source give for `CNC(=NC#N)NCCSCc1[nH]cnc1C` [Cimetidine] here?
**A.** immediate inhibitory effect on gastric acid output

**Q.** What about the “Half-life” value [4] of the same compound?
**A.** relatively short

**Q.** What about the “H2 antagonist potency/effectiveness” value (H2 receptor) of the same compound?
**A.** as effective an H2 antagonist as metiamide

**Q.** And the “Effectiveness in treatment of peptic ulcer disease” value (peptic ulcer disease)?
**A.** effective therapeutic agent in the treatment of peptic ulcer disease

**Q.** What about the “Agranulocytosis” value [5] of the same compound?
**A.** without producing agranulocytosis

**Q.** And the “Histamine ED50 (concentration of histamine which increased contractile rate 50% of maximum) after test compound” value [3]?
**A.** 1.39 µg/mL

**Q.** For `NCCc1c[nH]cn1` [Histamine], which “Effect on contractile rate of guinea pig right atria” value [6] is on record?
**A.** concentration-related increases in the contractile rate

**Q.** And the “Histamine concentration at which maximal response occurred” value ([3]; cumulative histamine addition)?
**A.** 30 µM

**Q.** For `CNC(=S)NCCSCc1[nH]cnc1C` [Metiamide], which “H2 antagonist potency/effectiveness” value (H2 receptor) is on record?
**A.** more potent than burimamide

**Q.** And the “Oral activity” value (gastric secretion; man)?
**A.** orally active in man

**Q.** And the “Agranulocytosis” value [5]?
**A.** toxicity (agranulocytosis)
